# Experiments:
# [1] = tested on: mice intoxicated with Aβ25-35 oligomers; test: Y-labyrinth spontaneous alternation test (YMT), short-term spatial working memory, Aβ25-35 oligomer ICV intoxication model; type: in vivo, male Swiss OF-1 mice
# Experimental: (§1) In vivo experiments were conducted on male Swiss OF-1 mice (January, St Berthevin, France) aged 7 to 9 weeks with a mass of 32±2 g. The animals are housed in groups of 8 to 10 individuals in plastic cages with free access to food and drink, in a controlled environment (12:00 day/night cycle, the light is switched on at 7:00 a.m. and the behavioral experiments take place between 9:00 a.m. and 5:00 p.m.), under controlled atmosphere and sound environment.
# The stock solutions of the compounds were obtained by dissolution in NaCl buffer (0.9%, vehicle) at a concentration of 2 mg/mL which corresponds to a dose of 5 mg/Kg. These stock solutions are stored at 4° C. for 2 weeks maximum.
# (§2) The vehicle solution or the control peptide are subjected to the same treatment before administration.
# The compounds are IP administered in a volume of 100 μL per 20 g of body mass. […] The doses of compounds mentioned in the experimental part correspond to the doses of salts of the used compounds and not to the mass equivalent of the compound itself. For each compound, the administered doses are 0.01, 0.03, 0.1, 0.3 and 1 mg/kg. In the case of the combination, the co-administered doses of donepezil and FENM were 0.03 and 0.01 mg/kg, respectively.
# (§3) The ability of the compounds and their combination to decrease the cognitive symptoms of neurodegeneration induced by the Aβ25-35 oligomers is tested. For this purpose, the administration of the test compounds takes place on the same day as the injection of the Aβ25-35 oligomers and continues on a daily basis until day 7 after the injection of the Aβ25-35 oligomers; the mice are then subjected to YMT tests, or PAT on day 8 after the injection of the Aβ25-35 oligomers.
# The spontaneous alternation test is used to study the (very short-term) spatial working memory in rodents. The labyrinth is made of opaque gray polyvinyl chloride (PVC). Each arm is 40 cm long, 13 cm high and 3 cm wide at its base and 10 cm at its top. The arms converge towards one another, with an equal angle between the different arms. In brief, each mouse is placed at the end of an arm and left free to move for an 8-minute session. The mouse entries in each of the arms, including the arm at which it was dropped, are recorded. An alternation is defined as the successive entry of the animal into three different arms.
# The animal data showing extreme behaviors (percentage of alternation <20% or >90%) are not taken into account in the calculations. The attrition rate is usually 5%. Under normal conditions, a mouse will spontaneously alternate the explorations of each arm. A mouse with impaired memory and/or orientation capabilities will have its alternation percentage decreased.
# Data were analyzed using unidirectional variance analyses (ANOVA, F-value), followed by a Dunnett test or non-parametric Kruskal-Wallis ANOVA (H-value) followed by a Dunn comparison test. The statistical significance levels are p<0.05, p<0.01 and p<0.001.
# [2] = tested on: mice intoxicated with Aβ25-35 oligomers; test: Passive avoidance test (PAT), long-term contextual memory, Aβ25-35 oligomer ICV intoxication model; type: in vivo, male Swiss OF-1 mice
# Experimental: as §1
# FENM was obtained from M2i Life Sciences (Saint-Cloud, France). The stock solutions of the compounds were obtained by dissolution in NaCl buffer (0.9%, vehicle) at a concentration of 2 mg/mL which corresponds to a dose of 5 mg/Kg. These stock solutions are stored at 4° C. for 2 weeks maximum.
# as §2
# The compounds are IP administered in a volume of 100 μL per 20 g of body mass. […] The doses of compounds mentioned in the experimental part correspond to the doses of salts of the used compounds and not to the mass equivalent of the compound itself. For each compound, the administered doses are 0.01, 0.03, 0.1, 0.3 and 1 mg/kg.
# as §3
# This test measures the long-term non-space (contextual) memory. The device used for this test is a box with two compartments (15×20×15 cm high), one illuminated with white PVC walls and the other in the dark with black PVC walls and a mesh floor. A guillotine door separates the compartments. A 60 W lamp is positioned 40 cm above the box and illuminates the white compartment. Electrical shocks (0.3 mA for 3 s) may be applied to the grid floor via a generator (Lafayette Instruments, Lafayette, USA). The test consists of a learning session and a test session. The guillotine door is closed during the training session. Each mouse is placed in the white compartment. After 5 seconds, the door is raised. When the mouse enters the dark compartment so that its four legs are in contact with the mesh, the door closes and electrical discharges are applied for 3 seconds. The time taken by the mouse to enter the dark compartment (STL-Tg) and the level of shock sensitivity (0=no sign; 1=surges; surge and vocalizes) are recorded. The test session is performed 24 hours after the learning session. Each mouse is placed back in the illuminated white compartment. After 5 seconds, the door is raised, the latency time (STL-R), i.e. the time it takes the mouse to go into the dark compartment, is measured. The maximum time is 300 seconds.
smiles,measurement,setting,value
"NC12CC3CC(C1)CC(CCF)(C3)C2.OBr [FENM, 3 (2-Fluoroethyl)tricyclo[3.3.1.13,7]decan-1-amine bromohydrate]",effect on percentage of alternation of intoxicated mice,[1]; 0.01 mg/kg,at the limit of statistical significance
same,PP (%) percentage protection,"[1]; 0.01 mg/kg IP daily to day 7, 100% = non-intoxicated vehicle, 0% = Aβ25-35/vehicle",38.5 ± 31.9%
same,effect on percentage of alternation of intoxicated mice,[1]; 0.03 mg/kg,significantly improves the percentage of alternation
same,PP (%) percentage protection,[1]; 0.03 mg/kg IP,58.4 ± 20.8%
same,PP (%) percentage protection,[1]; 0.1 mg/kg IP,71.2 ± 33.3 %
same,PP (%) percentage protection,[2]; 0.01 mg/kg IP,1.4 ± 18.3%
same,PP (%) percentage protection,[2]; 0.03 mg/kg IP,−12.2 ± 16.8 %
same,PP (%) percentage protection,[2]; 0.1 mg/kg IP,27.8 ± 24.8%
same,PP (%) percentage protection,[2]; 0.3 mg/kg IP,52.9 ± 14.2 %
same,effect on passive avoidance performance (latency) of intoxicated mice,[2]; 0.3 mg/kg or 1 mg/kg IP,"performances that are not significantly different from the control, non-intoxicated, untreated mice"
same,effect on passive avoidance performance (latency) of intoxicated mice,[2]; doses lower than 0.3 mg/kg,does not protect mice from mnesic disorders

# Reference: patent publication US20250000818A1, “NEW SYNERGISTIC COMBINATIONS BASED ON FENM AND AN ACETYLCHOLINESTERASE INHIBITOR” (REST Therapeutics, priority 2021, published 2025)
